Source: US20240050943A1, “MULTI-VOLUME MICROCHAMBER-BASED MICROFLUIDIC PLATFORM AND USE THEREOF” (CORNELL UNIVERSITY, priority 2020, published 2024)

Columns and labels:
E. coli 541-15 = experiment: Gold standard broth microdilution (BMD) test, OD600; format: cell-based; settings: E. coli 541-15, 1×10^6 CFU/mL
[1] = tested on: GFP-labeled E. coli 541-15; experiment: Antibiotic susceptibility test (AST) in the EL-MVM^2 microfluidic platform, resazurin fluorescence / GFP readout; format: cell-based; settings: GFP-labeled E. coli 541-15, 4.5 hours of incubation; intermediate sub-GCP = 1.12-12.54 μg/mL

## Gentamicin
E. coli 541-15
  MIC (broth microdilution, OD600 nm, 80% reduction): 5.00 mg/L
[1]
  Turning point of GFP-labeled bacterial growth from partially to totally inhibited: intermediate concentration range
